Holding throughout (experiment): ≥ marks a high value that may be exact or a test limit, other limits are often not marked, values filed in µg/mL are converted to µM
In experiment [1] the test system is Candida albicans ATCC 2002.
The test system of experiment [2] is Escherichia coli ATCC 25922.
For experiment [3], the system named is Staphylococcus aureus ATCC 2592.
Experiment [4] relates to Pseudomonas aeruginosa ATCC 9027.
The subject of experiment [5] is Escherichia coli JW0013.
Experiment [6] deals with Bacillus subtilis.
The subject of experiment [7] is Escherichia coli UB1005.
Experiment [8] relates to Pseudomonas aeruginosa PAO1.
In experiment [9] the test system is Staphylococcus aureus ATCC 25923.

The text below walks through data of DBAASP.

≈ marks a conversion by molar mass, not a printed value.

For the compound `CC[C@H](C)[C@H](NC(=O)[C@H](CCCN=C(N)N)NC(=O)[C@@H](NC(=O)[C@@H]1CCCN1C(=O)[C@@H](NC(=O)[C@@H](NC(=O)[C@H](CCC(N)=O)NC(=O)[C@@H]1CCCN1C(=O)[C@@H](NC(=O)[C@@H](NC(=O)[C@H](Cc1cnc[nH]1)NC(=O)[C@@H]1CCCN1C(=O)[C@@H]1CCCN1C(=O)[C@@H](NC(=O)CNC(=O)[C@H](Cc1c[nH]c2ccccc12)NC(=O)[C@H](C)NC(=O)[C@H](CCCCN)NC(=O)[C@H](C)N)[C@@H](C)CC)C(C)C)[C@@H](C)CC)[C@@H](C)CC)C(C)C)C(C)C)C(=O)N[C@@H](CCCN=C(N)N)C(=O)N1CCC[C@H]1C(=O)N[C@@H](CC(C)C)C(=O)NCC(=O)NCC(=O)N[C@@H](CC(N)=O)C(=O)N[C@H](C(=O)O)C(C)C` [AKAWGIPPHVIPQIVPVRIRPLGGNV], the MIC came out at 8.98 µM (≈ 25 µg/mL) in experiment [1], 8.98 µM (≈ 25 µg/mL) in experiment [2] and 1.15 µM (≈ 3.2 µg/mL) in experiment [3].
On to `CC(C)C[C@H](NC(=O)[C@H](CC(C)C)NC(=O)[C@H](Cc1ccccc1)NC(=O)[C@@H]1CCCN1C(=O)[C@H](CC(C)C)NC(=O)[C@@H](N)Cc1ccccc1)C(=O)N[C@@H](CO)C(=O)N[C@@H](C)C(=O)N[C@@H](CC(C)C)C(=O)N1CCC[C@H]1C(=O)N[C@@H](CCCCN)C(=O)N[C@H](C(=O)N[C@@H](Cc1ccccc1)C(=O)N[C@H]1CSSC[C@@H](C(=O)O)NC(=O)[C@H](CCCCN)NC(=O)[C@H](CCCCN)NC(=O)[C@H](CO)NC(=O)[C@H](Cc2ccccc2)NC(=O)[C@H](Cc2ccccc2)NC1=O)C(C)C` [FLPFLLSALPKVFCFFSKKC], for which the MIC in experiment [1] was ≥ 43 µM; in experiment [2], 16 µM (≈ 37.3 µg/mL); in [4], 32 µM (≈ 74.7 µg/mL); in experiment [3] it was 8 µM (≈ 18.7 µg/mL).
Consider `CC[C@H](C)[C@H](NC(=O)[C@@H]1CCCN1C(=O)[C@H](CCCN=C(N)N)NC(=O)[C@@H]1CCCN1C(=O)[C@@H](NC(=O)[C@@H]1CCCN1C(=O)[C@H](CC(C)C)NC(=O)[C@@H](N)Cc1ccccc1)[C@@H](C)CC)C(=O)N[C@@H](CC(C)C)C(=O)N[C@@H](CC(C)C)C(=O)NCC(=O)N[C@@H](CC(C)C)C(=O)N[C@@H](CC(C)C)C(N)=O` [FLPIPRPILLGLL], for which the minimum inhibitory concentration (MIC) in experiment [1] was determined as 17.1 µM (≈ 25 µg/mL); in experiment [2], 20.5 µM (≈ 30 µg/mL); in [3], 6.84 µM (≈ 9.99 µg/mL).
For the compound `CSCC[C@H](NC(=O)[C@@H](NC(=O)[C@H](CCCCN)NC(=O)[C@H](Cc1cnc[nH]1)NC(=O)[C@H](CC(C)C)NC(=O)CN)C(C)C)C(=O)N[C@@H](CCCN=C(N)N)C(=O)N[C@@H](CCC(=O)O)C(=O)N[C@H](C(=O)N[C@@H](CC(C)C)C(=O)NCC(=O)N[C@@H](Cc1ccc(O)cc1)C(=O)N[C@@H](CCC(=O)O)C(=O)N[C@@H](CCCN=C(N)N)C(=O)N[C@@H](CC(N)=O)C(=O)N[C@@H](CO)C(=O)N[C@@H](Cc1ccc(O)cc1)C(=O)N[C@@H](CCCCN)C(=O)N[C@@H](CCCCN)C(=O)N[C@@H](Cc1ccccc1)C(=O)N[C@@H](Cc1ccccc1)C(=O)N[C@@H](CC(C)C)C(=O)N[C@@H](CCCN=C(N)N)C(=O)O)C(C)C` [GLHKVMREVLGYERNSYKKFFLR], the MIC in experiment [1] came to 2.61 µM (≈ 7.5 µg/mL); in experiment [2] it was 10.4 µM (≈ 30 µg/mL); in [3], 1.29 µM (≈ 3.7 µg/mL).
Turning to `CC[C@H](C)[C@H](NC(=O)[C@H](CCCN=C(N)N)NC(=O)[C@H](CCCN=C(N)N)NC(=O)[C@@H]1CCCN1C(=O)[C@@H]1CCCN1C(=O)[C@H](CCCN=C(N)N)NC(=O)[C@@H]1CCCN1C(=O)[C@H](CCCN=C(N)N)NC(=O)[C@@H]1CCCN1C(=O)[C@H](CC(C)C)NC(=O)[C@H](Cc1ccc(O)cc1)NC(=O)[C@@H]1CCCN1C(=O)[C@@H]1CCCN1C(=O)[C@H](CCCCN)NC(=O)[C@H](CC(=O)O)NC(=O)[C@@H]1CCCN1)C(=O)N[C@@H](Cc1ccc(O)cc1)C(=O)N[C@@H](CC(N)=O)C(=O)N[C@@H](CCCN=C(N)N)C(N)=O` [PDKPPYLPRPRPPRRIYNR], the minimal inhibitory concentration (MIC) in [5] amounted to 2.01 µM (≈ 4.8 µg/mL).
Consider `CC[C@H](C)[C@H](NC(=O)[C@H](CCC(N)=O)NC(=O)[C@H](CCCCN)NC(=O)[C@H](Cc1c[nH]c2ccccc12)NC(=O)[C@H](CC(C)C)NC(=O)[C@H](CCC(N)=O)NC(=O)[C@@H]1CCCN1C(=O)[C@H](CC(C)C)NC(=O)[C@H](CCCCN)NC(=O)[C@H](C)NC(=O)[C@H](CCC(=O)O)NC(=O)[C@H](CCCCN)NC(=O)[C@@H](NC(=O)CNC(=O)[C@@H](NC(=O)[C@@H](NC(=O)[C@@H](NC(=O)[C@@H](N)CO)[C@@H](C)CC)[C@@H](C)CC)[C@@H](C)O)[C@@H](C)O)C(=O)N[C@@H](C)C(=O)N[C@H]1CSSC[C@@H](C(=O)O)NC(=O)[C@H]([C@@H](C)O)NC(=O)[C@H](CC(N)=O)NC(=O)[C@H](Cc2ccc(O)cc2)NC(=O)[C@H](CC(C)C)NC(=O)[C@H](CCCN=C(N)N)NC1=O` [SIITGTKEAKLPQLWKQIACRLYNTC], for which the minimum inhibitory concentration (MIC) in experiment [6] was ≥ 40.3 µM; in [1], 10.1 µM (≈ 30 µg/mL); in experiment [2], 20.1 µM (≈ 60 µg/mL); in experiment [3] it was 5.03 µM (≈ 15 µg/mL).
Compound `CC[C@H](C)[C@H](NC(=O)[C@H](CCCN=C(N)N)NC(=O)[C@H](CCCN=C(N)N)NC(=O)[C@@H]1CCCN1C(=O)[C@@H]1CCCN1C(=O)[C@H](CCCN=C(N)N)NC(=O)[C@H](CCCCN)NC(=O)[C@H](CCCN=C(N)N)NC(=O)[C@@H]1CCCN1C(=O)[C@H](CC(C)C)NC(=O)[C@H](CCCN=C(N)N)NC(=O)[C@@H]1CCCN1C(=O)[C@H](CCCCN)NC(=O)[C@H](CCCCN)NC(=O)[C@H](CC(=O)O)NC(=O)[C@@H](N)C(C)C)C(=O)N[C@@H](Cc1ccc(O)cc1)C(=O)N[C@@H](CC(N)=O)C(=O)N[C@@H](CCCN=C(N)N)C(N)=O` [VDKKPRLPRKRPPRRIYNR] returned an MIC in [5] of 0.695 µM (≈ 1.7 µg/mL). In other words, the sub-micromolar range.
The compound `CC[C@H](C)[C@H](NC(=O)[C@H](CCCN=C(N)N)NC(=O)[C@H](CCCN=C(N)N)NC(=O)[C@@H]1CCCN1C(=O)[C@@H]1CCCN1C(=O)[C@H](CCCN=C(N)N)NC(=O)[C@@H]1CCCN1C(=O)[C@H](CCCN=C(N)N)NC(=O)[C@@H]1CCCN1C(=O)[C@H](CC(C)C)NC(=O)[C@@H](NC(=O)[C@@H]1CCCN1C(=O)[C@@H]1CCCN1C(=O)[C@H](CCCCN)NC(=O)[C@H](CC(=O)O)NC(=O)[C@@H](N)C(C)C)C(C)C)C(=O)N[C@@H](Cc1ccc(O)cc1)C(=O)N[C@@H](CC(N)=O)C(=O)N[C@@H](CCCN=C(N)N)C(N)=O` [VDKPPVLPRPRPPRRIYNR] yielded a minimum inhibitory concentration (MIC) in [5] of 2.06 µM (≈ 4.8 µg/mL). This MIC is about 3-fold higher than that of the compound before.
On the same count and under the same terms, with `CC[C@H](C)[C@H](NC(=O)[C@H](CCCN=C(N)N)NC(=O)[C@H](CCCN=C(N)N)NC(=O)[C@@H]1CCCN1C(=O)[C@@H]1CCCN1C(=O)[C@H](CCCN=C(N)N)NC(=O)[C@H](Cc1ccccc1)NC(=O)[C@H](CCCN=C(N)N)NC(=O)[C@@H]1CCCN1C(=O)[C@H](CC(C)C)NC(=O)[C@H](Cc1ccc(O)cc1)NC(=O)[C@@H]1CCCN1C(=O)[C@@H]1CCCN1C(=O)[C@H](CCCCN)NC(=O)[C@H](CC(=O)O)NC(=O)[C@@H](N)C(C)C)C(=O)N[C@@H](Cc1ccc(O)cc1)C(=O)N[C@@H](CC(N)=O)C(=O)N[C@@H](CCCN=C(N)N)C(N)=O` [VDKPPYLPRFRPPRRIYNR] the figure was 1.97 µM (≈ 4.8 µg/mL); with `CC[C@H](C)[C@H](NC(=O)[C@H](CCCN=C(N)N)NC(=O)[C@H](CCCN=C(N)N)NC(=O)[C@@H]1CCCN1C(=O)[C@@H]1CCCN1C(=O)[C@H](CCCN=C(N)N)NC(=O)[C@H](CCCCN)NC(=O)[C@H](CCCN=C(N)N)NC(=O)[C@@H]1CCCN1C(=O)[C@H](CCCN=C(N)N)NC(=O)[C@H](Cc1ccc(O)cc1)NC(=O)[C@@H]1CCCN1C(=O)[C@H](CCCN=C(N)N)NC(=O)[C@H](CCCCN)NC(=O)[C@H](CC(=O)O)NC(=O)[C@@H](N)C(C)C)C(=O)N[C@@H](Cc1ccc(O)cc1)C(=O)N[C@@H](CC(N)=O)C(=O)N[C@@H](CCCN=C(N)N)C(N)=O` [VDKRPYRPRKRPPRRIYNR], 0.951 µM (≈ 2.4 µg/mL).
The same measure, in the same setting: the same measure for `CC[C@H](C)[C@H](NC(=O)[C@H](CCCN=C(N)N)NC(=O)[C@H](CCCN=C(N)N)NC(=O)[C@@H]1CCCN1C(=O)[C@@H]1CCCN1C(=O)[C@H](CCCN=C(N)N)NC(=O)[C@@H]1CCCN1C(=O)[C@H](CCCN=C(N)N)NC(=O)[C@@H]1CCCN1C(=O)[C@H](CC(C)C)NC(=O)[C@H](Cc1ccc(O)cc1)NC(=O)[C@@H]1CCCN1C(=O)[C@@H]1CCCN1C(=O)[C@H](CCCCN)NC(=O)[C@H](CC(N)=O)NC(=O)[C@@H](N)C(C)C)C(=O)N[C@@H](Cc1ccc(O)cc1)C(=O)N[C@@H](CC(N)=O)C(=O)N[C@@H](CCCN=C(N)N)C(N)=O` [VNKPPYLPRPRPPRRIYNR]: 2.01 µM (≈ 4.8 µg/mL).
In the case of `CC[C@H](C)[C@H](NC(=O)[C@H](CCCN=C(N)N)NC(=O)[C@H](CCCN=C(N)N)NC(=O)[C@@H]1CCCN1C(=O)[C@@H]1CCCN1C(=O)[C@H](CCCN=C(N)N)NC(=O)[C@@H]1CCCN1C(=O)[C@H](CCCN=C(N)N)NC(=O)[C@@H]1CCCN1C(=O)[C@H](CC(C)C)NC(=O)[C@H](Cc1ccc(O)cc1)NC(=O)[C@@H]1CCCN1C(=O)[C@@H]1CCCN1C(=O)[C@H](CCCCN)NC(=O)[C@H](CCCN=C(N)N)NC(=O)[C@@H](N)C(C)C)C(=O)N[C@@H](Cc1ccc(O)cc1)C(=O)N[C@@H](CC(N)=O)C(=O)N[C@@H](CCCN=C(N)N)C(N)=O` [VRKPPYLPRPRPPRRIYNR], the minimal inhibitory concentration (MIC) was 1.36 µM (≈ 3.3 µg/mL) in experiment [5], 0.247 µM (≈ 0.6 µg/mL) in experiment [7], 26.3 µM (≈ 64 µg/mL) in experiment [8] and 1.64 µM (≈ 4 µg/mL) in experiment [9].
